Data published in article PMC7265341, “Quantifying CDK inhibitor selectivity in live cells” (Nature Communications, 2020).
Read-outs that look alike come from different tables or passages of the source.

How the values were obtained:
[1] = target: CDK19/Cyclin C (Homo sapiens, UniProt Q9BWU1); assay: NanoBRET live-cell target engagement, NanoLuc-CDK19/Cyclin C in HEK-293; details: CDK19/C
[2] = target: CDK18/Cyclin Y (Homo sapiens, UniProt Q07002); assay: NanoBRET live-cell target engagement, CDK18-NanoLuc/Cyclin Y in HEK-293; type: binding; details: CDK18/Y; for IC50: read-out: IC50
[3] = target: CDK7 (Homo sapiens, UniProt P50613); assay: NanoBRET live-cell target engagement, NanoLuc-CDK7 in HEK-293; type: binding; details: CDK7; for IC50: read-out: IC50
[4] = target: CDK3/Cyclin E1 (Homo sapiens, UniProt Q00526); assay: NanoBRET live-cell target engagement, CDK3-NanoLuc/Cyclin E1 in HEK-293; type: binding; details: CDK3/E1; for IC50: read-out: IC50
[5] = target: T1, CDK11A/Cyclin L2 (Homo sapiens, UniProt Q9UQ88); assay: NanoBRET live-cell target engagement, CDK11A-NanoLuc/Cyclin L2 in HEK-293; type: binding; details: CDK11a/L2
T1 sequence (Q9UQ88 1-783): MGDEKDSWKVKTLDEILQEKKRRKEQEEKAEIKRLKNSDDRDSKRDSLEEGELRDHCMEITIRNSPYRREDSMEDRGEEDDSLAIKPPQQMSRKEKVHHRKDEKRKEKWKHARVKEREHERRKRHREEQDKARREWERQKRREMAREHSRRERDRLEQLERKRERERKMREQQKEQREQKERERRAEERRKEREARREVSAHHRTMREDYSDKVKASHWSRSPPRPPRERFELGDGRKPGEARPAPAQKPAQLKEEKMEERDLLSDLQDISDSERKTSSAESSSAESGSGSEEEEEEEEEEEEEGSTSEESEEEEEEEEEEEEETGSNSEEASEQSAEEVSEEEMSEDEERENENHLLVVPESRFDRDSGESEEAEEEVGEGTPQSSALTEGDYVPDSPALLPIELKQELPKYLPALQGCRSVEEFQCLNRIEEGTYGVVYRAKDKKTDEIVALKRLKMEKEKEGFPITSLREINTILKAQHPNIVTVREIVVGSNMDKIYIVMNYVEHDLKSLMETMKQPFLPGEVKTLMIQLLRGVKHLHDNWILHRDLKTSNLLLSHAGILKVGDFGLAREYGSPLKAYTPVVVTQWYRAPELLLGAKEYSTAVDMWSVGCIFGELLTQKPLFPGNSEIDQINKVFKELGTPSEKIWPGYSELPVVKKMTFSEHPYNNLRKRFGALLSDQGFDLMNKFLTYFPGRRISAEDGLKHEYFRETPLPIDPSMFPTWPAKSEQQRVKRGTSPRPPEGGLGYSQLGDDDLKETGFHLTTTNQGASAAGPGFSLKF

[6] = target: CDK13/Cyclin K (Homo sapiens, UniProt Q14004); assay: NanoBRET live-cell target engagement, CDK13-NanoLuc/Cyclin K in HEK-293; type: binding; details: CDK13/K
[7] = target: CDK5/CDK5R1 (Homo sapiens, UniProt Q00535); assay: NanoBRET live-cell target engagement, CDK5-NanoLuc/CDK5R1 in HEK-293; type: binding
[8] = target: CDK2/Cyclin E1 (Homo sapiens, UniProt P24941); assay: NanoBRET live-cell target engagement, CDK2-NanoLuc/Cyclin E1 in HEK-293; type: binding
[9] = target: CDK1/Cyclin E1 (Homo sapiens, UniProt P06493); assay: NanoBRET live-cell target engagement, CDK1-NanoLuc/Cyclin E1 in HEK-293; type: binding
CDK1/Cyclin E1, sequence (P06493 whole entry): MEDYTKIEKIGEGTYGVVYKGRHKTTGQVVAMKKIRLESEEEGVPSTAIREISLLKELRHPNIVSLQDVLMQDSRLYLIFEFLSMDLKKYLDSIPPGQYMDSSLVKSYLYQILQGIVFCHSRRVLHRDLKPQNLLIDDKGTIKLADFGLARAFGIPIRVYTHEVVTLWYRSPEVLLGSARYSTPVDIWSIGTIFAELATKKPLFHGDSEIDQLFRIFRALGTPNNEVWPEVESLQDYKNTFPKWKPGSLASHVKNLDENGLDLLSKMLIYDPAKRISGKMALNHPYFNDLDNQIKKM
CDK1/Cyclin E1, sequence (P24864 whole entry partner): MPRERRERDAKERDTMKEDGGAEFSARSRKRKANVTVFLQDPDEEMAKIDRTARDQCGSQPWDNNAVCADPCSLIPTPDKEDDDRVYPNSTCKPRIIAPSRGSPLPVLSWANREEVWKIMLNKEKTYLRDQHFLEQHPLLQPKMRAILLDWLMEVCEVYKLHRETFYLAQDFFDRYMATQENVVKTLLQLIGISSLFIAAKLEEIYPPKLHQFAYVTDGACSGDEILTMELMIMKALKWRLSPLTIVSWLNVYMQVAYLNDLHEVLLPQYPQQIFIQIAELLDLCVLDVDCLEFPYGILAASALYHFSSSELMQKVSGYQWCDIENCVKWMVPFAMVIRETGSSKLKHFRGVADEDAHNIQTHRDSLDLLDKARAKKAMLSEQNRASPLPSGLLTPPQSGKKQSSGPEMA

CDK5/CDK5R1, sequence (Q00535 whole entry): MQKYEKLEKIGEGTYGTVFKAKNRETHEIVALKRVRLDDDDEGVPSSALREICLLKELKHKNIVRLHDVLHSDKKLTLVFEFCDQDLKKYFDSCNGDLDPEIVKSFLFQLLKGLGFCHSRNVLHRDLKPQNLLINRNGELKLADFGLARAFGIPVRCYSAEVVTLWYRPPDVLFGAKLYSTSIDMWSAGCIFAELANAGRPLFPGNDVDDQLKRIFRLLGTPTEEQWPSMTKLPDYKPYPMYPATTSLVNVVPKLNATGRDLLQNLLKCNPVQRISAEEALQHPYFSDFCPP
CDK5/CDK5R1, sequence (Q15078 whole entry partner): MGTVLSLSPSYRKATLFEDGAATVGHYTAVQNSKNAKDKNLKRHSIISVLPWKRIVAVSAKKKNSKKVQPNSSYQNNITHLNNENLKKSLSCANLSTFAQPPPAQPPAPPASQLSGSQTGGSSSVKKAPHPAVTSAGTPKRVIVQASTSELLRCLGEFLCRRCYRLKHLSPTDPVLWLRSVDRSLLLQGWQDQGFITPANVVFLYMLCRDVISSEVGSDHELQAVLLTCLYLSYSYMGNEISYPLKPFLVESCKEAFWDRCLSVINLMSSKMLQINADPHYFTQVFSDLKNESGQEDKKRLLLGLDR
CDK19/Cyclin C, sequence (Q9BWU1 whole entry): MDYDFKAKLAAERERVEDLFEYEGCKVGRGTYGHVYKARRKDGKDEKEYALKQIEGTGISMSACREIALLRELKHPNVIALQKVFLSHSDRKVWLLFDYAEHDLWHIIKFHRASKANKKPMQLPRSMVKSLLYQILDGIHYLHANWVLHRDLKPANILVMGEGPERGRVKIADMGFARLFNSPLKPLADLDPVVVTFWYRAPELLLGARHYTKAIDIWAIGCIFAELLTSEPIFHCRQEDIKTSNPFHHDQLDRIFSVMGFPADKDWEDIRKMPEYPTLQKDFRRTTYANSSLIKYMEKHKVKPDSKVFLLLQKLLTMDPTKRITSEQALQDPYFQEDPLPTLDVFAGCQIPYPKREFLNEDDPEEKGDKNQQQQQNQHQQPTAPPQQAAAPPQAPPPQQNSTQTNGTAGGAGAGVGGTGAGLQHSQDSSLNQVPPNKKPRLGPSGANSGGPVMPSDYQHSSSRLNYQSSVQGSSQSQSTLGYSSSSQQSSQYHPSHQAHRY
CDK19/Cyclin C, sequence (P24863 whole entry partner): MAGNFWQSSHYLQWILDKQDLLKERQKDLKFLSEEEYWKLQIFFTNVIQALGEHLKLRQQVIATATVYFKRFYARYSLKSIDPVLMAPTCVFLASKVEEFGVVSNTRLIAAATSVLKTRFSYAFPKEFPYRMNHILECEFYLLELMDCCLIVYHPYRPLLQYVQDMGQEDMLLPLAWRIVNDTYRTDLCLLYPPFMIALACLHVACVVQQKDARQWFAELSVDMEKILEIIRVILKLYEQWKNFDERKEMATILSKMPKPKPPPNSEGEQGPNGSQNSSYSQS
CDK3/Cyclin E1, sequence (Q00526 whole entry): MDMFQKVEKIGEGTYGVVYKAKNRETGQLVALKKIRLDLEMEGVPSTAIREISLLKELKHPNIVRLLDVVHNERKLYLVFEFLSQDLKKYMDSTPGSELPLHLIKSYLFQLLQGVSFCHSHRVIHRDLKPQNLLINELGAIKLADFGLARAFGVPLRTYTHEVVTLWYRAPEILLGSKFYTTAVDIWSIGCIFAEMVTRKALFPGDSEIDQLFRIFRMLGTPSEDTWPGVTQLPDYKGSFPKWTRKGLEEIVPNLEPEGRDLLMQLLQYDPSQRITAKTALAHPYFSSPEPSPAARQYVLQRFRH
CDK3/Cyclin E1, sequence (P24864 whole entry partner): as the sequence (P24864 whole entry partner) above
CDK18/Cyclin Y, sequence (Q07002 whole entry): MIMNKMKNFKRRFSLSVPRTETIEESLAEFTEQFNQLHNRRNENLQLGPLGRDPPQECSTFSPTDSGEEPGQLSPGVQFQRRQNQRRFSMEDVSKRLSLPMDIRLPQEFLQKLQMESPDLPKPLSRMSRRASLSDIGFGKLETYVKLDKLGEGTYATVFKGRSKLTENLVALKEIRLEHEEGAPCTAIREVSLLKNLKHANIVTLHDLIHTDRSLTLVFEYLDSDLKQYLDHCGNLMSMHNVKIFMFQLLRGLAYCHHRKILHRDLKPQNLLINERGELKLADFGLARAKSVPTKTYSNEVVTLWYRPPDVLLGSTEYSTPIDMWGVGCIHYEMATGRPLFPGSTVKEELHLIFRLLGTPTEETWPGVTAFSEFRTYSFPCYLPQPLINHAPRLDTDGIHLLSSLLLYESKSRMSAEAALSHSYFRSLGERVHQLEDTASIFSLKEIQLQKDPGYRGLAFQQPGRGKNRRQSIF
CDK18/Cyclin Y, sequence (Q8ND76 whole entry partner): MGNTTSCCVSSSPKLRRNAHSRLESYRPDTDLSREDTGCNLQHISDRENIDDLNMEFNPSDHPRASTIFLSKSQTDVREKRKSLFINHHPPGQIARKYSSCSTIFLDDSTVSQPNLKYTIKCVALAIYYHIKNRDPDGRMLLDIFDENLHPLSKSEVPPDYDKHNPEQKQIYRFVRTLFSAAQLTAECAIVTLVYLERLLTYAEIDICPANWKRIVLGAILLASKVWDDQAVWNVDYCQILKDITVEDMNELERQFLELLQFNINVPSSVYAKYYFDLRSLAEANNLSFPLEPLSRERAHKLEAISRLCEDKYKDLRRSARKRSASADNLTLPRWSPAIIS
CDK7, sequence (P50613 whole entry): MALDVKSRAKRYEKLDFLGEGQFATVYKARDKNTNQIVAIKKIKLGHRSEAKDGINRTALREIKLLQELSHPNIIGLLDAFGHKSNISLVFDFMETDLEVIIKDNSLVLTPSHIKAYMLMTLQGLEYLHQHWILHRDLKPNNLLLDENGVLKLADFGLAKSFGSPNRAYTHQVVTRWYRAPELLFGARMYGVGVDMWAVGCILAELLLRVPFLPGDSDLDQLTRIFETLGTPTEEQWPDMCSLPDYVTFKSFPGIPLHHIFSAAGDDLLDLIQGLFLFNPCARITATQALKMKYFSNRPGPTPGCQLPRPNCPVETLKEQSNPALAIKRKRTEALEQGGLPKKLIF

Compound: CC(C)c1cnn2c(NCc3ccccc3-n3cccn3)nc(OC3CCCNC3)nc12 (stereo not drawn) [LDC4297]
- Inhibition at 10µM (%) ([1]; average): 18.1%
- Inhibition at 10µM (%) ([1]; experiment 1): 45.9%
- Inhibition at 10µM (%) ([1]; experiment 2): -9.6%
- Inhibition at 10µM (%) ([2]; average): 97.4%
- IC50 ([2]; average (± SEM where n=3)): 230 ± 30 nM
- Inhibition at 10µM (%) ([2]; experiment 1): 93.4%
- IC50 ([2]; experiment 1): 177 nM
- Inhibition at 10µM (%) ([2]; experiment 2): 101.4%
- IC50 ([2]; experiment 2): 260 nM
- IC50 ([2]; experiment 3): 262 nM
- Inhibition at 10µM (%) ([3]; average): 93.9%
- IC50 ([3]; average (± SEM where n=3)): 22 ± 6 nM
- Inhibition at 10µM (%) ([3]; experiment 1): 93.7%
- IC50 ([3]; experiment 1): 17 nM
- Inhibition at 10µM (%) ([3]; experiment 2): 94.2%
- IC50 ([3]; experiment 2): 15 nM
- IC50 ([3]; experiment 3): 33 nM
- Inhibition at 10µM (%) ([4]; average): 89.3%
- IC50 ([4]; average (± SEM where n=3)): 240 ± 70 nM
- Inhibition at 10µM (%) ([4]; experiment 1): 89.3%
- IC50 ([4]; experiment 1): 121 nM
- Inhibition at 10µM (%) ([4]; experiment 2): 89.4%
- IC50 ([4]; experiment 2): 370 nM
- IC50 ([4]; experiment 3): 234 nM
- Inhibition at 10µM (%) ([5]; average): 56.5%
- Inhibition at 10µM (%) ([5]; experiment 1): 51.7%
- Inhibition at 10µM (%) ([5]; experiment 2): 61.3%
- Inhibition at 10µM (%) ([6]; average): 24.9%
- Inhibition at 10µM (%) ([6]; experiment 1): 20.0%
- Inhibition at 10µM (%) ([6]; experiment 2): 29.8%
- Inhibition at 10µM (%) ([7]; CDK5/CDK5R1, average): 89.8%
- IC50 ([7]; CDK5/CDK5R1, average (± SEM where n=3), read-out: IC50): 280 ± 50 nM
- Inhibition at 10µM (%) ([7]; CDK5/CDK5R1, experiment 1): 86.3%
- IC50 ([7]; CDK5/CDK5R1, experiment 1, read-out: IC50): 204 nM
- Inhibition at 10µM (%) ([7]; CDK5/CDK5R1, experiment 2): 93.4%
- IC50 ([7]; CDK5/CDK5R1, experiment 2, read-out: IC50): 280 nM
- IC50 ([7]; CDK5/CDK5R1, experiment 3, read-out: IC50): 360 nM
- IC50 ([7]; live HEK-293, 2 h, mean ± S.E.M. (n=3) or mean (n=2), read-out: IC50 for CDK/cyclin complexes, CDK5/R1): 280 ± 50 nM
- Inhibition at 10µM (%) ([8]; CDK2/E1, average): 88.3%
- IC50 ([8]; CDK2/E1, average (± SEM where n=3), read-out: IC50): 85 ± 2 nM
- Inhibition at 10µM (%) ([8]; CDK2/E1, experiment 1): 85.3%
- IC50 ([8]; CDK2/E1, experiment 1, read-out: IC50): 81 nM
- Inhibition at 10µM (%) ([8]; CDK2/E1, experiment 2): 91.3%
- IC50 ([8]; CDK2/E1, experiment 2, read-out: IC50): 86 nM
- IC50 ([8]; CDK2/E1, experiment 3, read-out: IC50): 85 nM
- IC50 ([8]; live HEK-293, 2 h, mean ± S.E.M. (n=3) or mean (n=2), read-out: IC50 for CDK/cyclin complexes, CDK2/E1): 85 ± 2 nM
- Inhibition at 10µM (%) ([9]; CDK1/E1, average): 72.7%
- IC50 ([9]; CDK1/E1, average (± SEM where n=3), read-out: IC50): 70 ± 20 nM
- Inhibition at 10µM (%) ([9]; CDK1/E1, experiment 1): 70.9%
- IC50 ([9]; CDK1/E1, experiment 1, read-out: IC50): 70 nM
- Inhibition at 10µM (%) ([9]; CDK1/E1, experiment 2): 74.5%
- IC50 ([9]; CDK1/E1, experiment 2, read-out: IC50): 110 nM
- IC50 ([9]; CDK1/E1, experiment 3, read-out: IC50): 43 nM
- IC50 ([9]; live HEK-293, 2 h, mean ± S.E.M. (n=3) or mean (n=2), read-out: IC50 for CDK/cyclin complexes, CDK1/E1): 70 ± 20 nM
